Measured values taken from ChEMBL document CHEMBL4342432, “Hydroxyl substituted benzoic acid/cinnamic acid derivatives: Tyrosinase inhibitory kinetics, anti-melanogenic activity and molecular docking studies” (Bioorg Med Chem Lett, 2020).
The source made the active and inactive calls. The rule behind the calls is not given here.

Key:
Tyrosinase [1] = biological target: T1, Tyrosinase (Agaricus bisporus, UniProt O42713); test: Inhibition of mushroom tyrosinase assessed as reduction in dopachrome formation using L-DOPA as substrate preincubated for 10 mins followed by substrate addition and further incubated for 20 mins by microplate reader assay
T1 sequence (O42713 whole entry): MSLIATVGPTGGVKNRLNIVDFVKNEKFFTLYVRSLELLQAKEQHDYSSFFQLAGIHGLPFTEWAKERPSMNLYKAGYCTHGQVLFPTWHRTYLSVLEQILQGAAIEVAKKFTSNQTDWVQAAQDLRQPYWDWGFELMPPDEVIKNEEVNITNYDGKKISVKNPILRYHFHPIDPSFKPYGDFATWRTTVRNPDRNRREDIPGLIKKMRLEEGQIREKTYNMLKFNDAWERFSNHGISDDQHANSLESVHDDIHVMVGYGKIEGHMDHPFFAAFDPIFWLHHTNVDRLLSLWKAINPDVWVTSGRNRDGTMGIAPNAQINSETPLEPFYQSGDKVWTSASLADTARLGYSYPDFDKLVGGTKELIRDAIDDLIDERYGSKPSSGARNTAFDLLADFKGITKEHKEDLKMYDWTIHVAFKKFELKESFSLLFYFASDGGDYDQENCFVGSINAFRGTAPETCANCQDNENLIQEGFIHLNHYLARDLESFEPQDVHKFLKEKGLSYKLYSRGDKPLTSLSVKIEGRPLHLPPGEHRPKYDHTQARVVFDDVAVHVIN

Tyrosinase [2] = biological target: T1, Tyrosinase
[3] = Cytotoxicity against mouse B16F10 cells assessed as cell viability at 40 ug/ml incubated for 24 hrs by MTT assay relative to control; assay type: cell-based, B16-F10; details: read-out: Activity
[4] = biological target: T2, Tyrosinase (Mus musculus) (UniProt P11344); test: Inhibition of tyrosinase in mouse B16F10 cells assessed as transformation of L-DOPA into dopachrome measured after 24 hrs by microplate reader analysis; assay type: cell-based
T2 sequence (whole entry): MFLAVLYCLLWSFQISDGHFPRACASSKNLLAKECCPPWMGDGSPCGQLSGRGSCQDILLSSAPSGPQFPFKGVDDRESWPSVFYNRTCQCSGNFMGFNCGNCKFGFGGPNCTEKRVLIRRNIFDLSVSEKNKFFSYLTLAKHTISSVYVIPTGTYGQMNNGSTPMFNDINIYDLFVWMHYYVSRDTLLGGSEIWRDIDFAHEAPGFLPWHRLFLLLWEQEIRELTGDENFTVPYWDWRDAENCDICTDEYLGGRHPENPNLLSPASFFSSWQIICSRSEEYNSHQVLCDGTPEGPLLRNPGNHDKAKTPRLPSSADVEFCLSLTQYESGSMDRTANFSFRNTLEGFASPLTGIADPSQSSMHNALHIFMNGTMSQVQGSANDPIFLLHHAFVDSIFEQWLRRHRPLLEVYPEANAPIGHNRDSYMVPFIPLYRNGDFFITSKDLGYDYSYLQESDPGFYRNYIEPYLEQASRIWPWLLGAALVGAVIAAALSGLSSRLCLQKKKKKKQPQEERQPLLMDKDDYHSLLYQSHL

[5] = Cytotoxicity against mouse B16F10 cells assessed as cell viability at 30 ug/ml incubated for 24 hrs by MTT assay relative to control; assay type: cell-based, B16-F10; details: read-out: Activity
B16-F10 = test: Cytotoxicity against mouse B16F10 cells assessed as effect on cell morphology at 20 to 60 ug/ml incubated for 24 hrs by fluorescent inverted microscopy analysis; assay type: cell-based; details: b16-f10, 24 h
[6] = biological target: T2, Tyrosinase (Mus musculus); test: Inhibition of tyrosinase in mouse B16F10 cells assessed as alpha-MSH-stimulated melanogenesis measured as melanin content at 25 to 30 ug/ml measured after 24 hrs in presence of alpha-MSH by microplate reader analysis; assay type: cell-based

IC50 (Tyrosinase [1]) [µM]	Structure (SMILES)	further results
173	COc1cccc(OC(=O)COC(=O)/C=C/c2ccccc2O)c1	–
39.4	COc1cccc(OC(=O)COC(=O)/C=C/c2ccccc2)c1	–
5.7	COc1cccc(OC(=O)COC(=O)/C=C/c2ccc(O)cc2)c1	viability at 24 h, 40 ug/ml [3]: > 95%; inhibition [4]: Dose-dependent effect; viability at 24 h, 30 ug/ml [5]: > 99%; Activity (B16-F10): Non-Toxic; Ki (Tyrosinase [2]): 11 µM; inhibition [6]: Active
338	COc1cccc(OC(=O)COC(=O)c2ccc(O)cc2)c1	–

Further lines, the compound ahead of its results:

Structure (SMILES)	IC50 (Tyrosinase [1]) [µM]	further results
COc1cccc(OC(=O)COC(=O)c2cccc(O)c2)c1	315	–
COc1cccc(OC(=O)COC(=O)c2cc(O)cc(O)c2)c1	193	–
COc1cccc(OC(=O)COC(=O)c2ccc(O)cc2O)c1	23.8	Ki (Tyrosinase [2]): 130 µM
COc1cccc(OC(=O)COC(=O)c2ccc(O)c(O)c2)c1	299	–
O=C(/C=C/c1ccc(O)cc1)OCC(=O)Oc1ccc2ccc(=O)oc2c1	124	–
